Data published in patent US11964943B2, “3,5-diarylidenyl-n-substituted-piperid-4-one-derived inhibitors of Stat3 pathway activity and uses thereof” (priority 2017, dated 2024).
In brackets after ≈: the same amount, converted by molar mass. Several values for one entry are separate records, joined by “and”; a condition that tells them apart may be missing. Equal entries are not always repeated. Where two headings read alike, the source gives them in different places.

Tests used:
[1] = system: A2780-cisplatin resistant spheroids; assay: CellTiter-Glo 3D cell viability assay, A2780-cisplatin resistant spheroids; format: cell-based; settings: 96 h exposure, 3D CellTiter-Glo
Description: For cell spheroid formation, HCT116-oxaliplatin resistant cells, A2780-cisplatin resistant cells, and HT1080 cells were seeded in Corning® Spheroid opaque-walled 96 well Microplates (ultra-low attachment; Nuclon™ Sphera™, Thermofisher) at densities of 2000 cells/well in 100 μl of cell solution and allowed to grow for 4 days, before any manipulation.
At the end of drug incubation, both the plates and the CellTitre-Glo® reagent (previously thawn overnight in the fridge) were equilibrated at room temperature for at least 30 min. Subsequently, 100 μl of cell solution were carefully removed from each well, without disrupting the spheroid and equal volume of CellTitre-Glo® reagent was added. Cell lysis was performed by vigorously shaking the plate for 5 min. To stabilize the luminescent signal, the plate was incubated in the dark at RT for another 30 min before luminescence was recorded on a plate reader. The cell viability of treated samples was normalised to the untreated controls.
The cytotoxicity studies in spheroids were conducted using the CellTiter-Glo® 3D Cell viability assay (Promega) following the instructions of the manufacturer.

B16 (melanoma) cells = assay: MTT cytotoxicity assay, B16 cells
L1210 (lymphoma) cells = assay: MTT cytotoxicity assay, L1210 cells
[2] = system: MDA-MB-435 cancer cell line; assay: SRB antiproliferative assay, MDA-MB-435; format: cell-based, human; settings: Homo sapiens, MDA-MB-435, 48 h exposure
[3] = Aqueous solubility (MultiScreen Solubility Filter Plate, shake-flask based); settings: aqueous buffer with 5% DMSO, pH 7.4, aqueous with cosolvent or surfactant or cyclodextrin, kinetic from dmso stock
Description: Aqueous solubility of Compounds of the Invention was measured with a modified version of the MultiScreen Solubility Filter Plate protocol (Millipore). This assay was based on the shake-flask equilibrium method and utilizes UV-Vis spectroscopy to quantify the unknown samples. The assay was conducted at room temperature at pH 7.4. […] Compound of the Invention was dissolved in DMSO, and the final DMSO concentration was 5% (v/v). Each sample was analyzed by UV-Vis spectroscopy at 10 nm increments from 260-600 nm to determine the optimal wavelength for detection and construct standard curves. […] A 4:1 mixture of supernatant to acetonitrile was added to a 96-well acrylic plate and analyzed by UV-Vis spectroscopy.
Aqueous solubility was measured with a modified version of the MultiScreen Solubility Filter Plate protocol (Millipore). This assay is based on the shake-flask equilibrium method and utilizes UV-Vis spectroscopy to quantify the unknown samples. The assay is conducted at room temperature at pH 7.4. […] Each compound was dissolved in DMSO, and the final DMSO concentration was 5% (v/v). Each sample was analyzed by UV-Vis spectroscopy at 10 nm increments from 260-600 nm to determine the optimal wavelength for detection and construct standard curves. […] A 4:1 mixture of supernatant to acetonitrile was added to a 96-well acrylic plate and analyzed by UV-Vis spectroscopy.

[4] = Mus musculus, B16, 72 h, read-out: IC50 (μM) B16, 72 h exposure, MTT, mean of three independent experiments
[5] = Mus musculus, L1210, 72 h, read-out: IC50 (μM) L1210, 72 h exposure, MTT, mean of three independent experiments
[6] = read-out: IC50 (μM) B16, 72 h exposure, MTT, mean of three independent experiments
[7] = read-out: IC50 (μM) L1210, 72 h exposure, MTT, mean of three independent experiments

Compound | IC50 (B16 (melanoma) cells; [4]) [µM] | IC50 (L1210 (lymphoma) cells; [5]) [µM] | other results
COc1cc(/C=C/C(=O)CC(=O)/C=C/c2ccc(O)c(OC)c2)ccc1O [Curcumin] |  |  | IC50 [1]: 37000 ± 9400 nM
O=C1/C(=C/c2ccccc2)CNC/C1=C\c1ccccc1 [IA-1] | 5 ± 1 | 0.5 | IC50 (μM) B16 (B16 (melanoma) cells; 72 h exposure, MTT, mean of three independent experiments): _Ta
Cc1ccc(/C=C2\CNC/C(=C\c3ccc(C)cc3)C2=O)cc1 [IA-2] |  |  | IC50 (B16 (melanoma) cells; [6]): 8 ± 4 µM; IC50 (L1210 (lymphoma) cells; [7]): 3.1 ± 0.1 µM
O=C1/C(=C/c2ccc([N+](=O)[O-])cc2)CNC/C1=C\c1ccc([N+](=O)[O-])cc1 [IA-3] | 15 | 0.3 | 
COc1ccc(/C=C2\CNC/C(=C\c3ccc(OC)cc3)C2=O)cc1 [IA-4] | 25 to 65 |  | IC50 (B16 (melanoma) cells; read-out: IC50 (μM) B16, 72 h exposure, MTT, mean of three independent experiments, listed as 4d): 43 µM; IC50 (L1210 (lymphoma) cells; [7]): 35 ± 8 µM
COc1ccc(/C=C2\CNC/C(=C\c3ccc(OC)c(O)c3)C2=O)cc1O [IA-5] | 3 ± 1 | 0.9 ± 0.3 | 
COc1cc(/C=C2\CNC/C(=C\c3ccc(O)c(OC)c3)C2=O)ccc1O [IA-6] | 1.3 ± 0.6 | 0.9 ± 0.4 | 
COc1ccc(/C=C2\CNC/C(=C\c3ccc(OC)c(OC)c3)C2=O)cc1OC [IA-7] | 2.3 ± 0.5 | 0.6 ± 0.2 | 
COc1cc(/C=C2\CNC/C(=C\c3cc(OC)c(OC)c(OC)c3)C2=O)cc(OC)c1OC [IA-8] | 0.3 | 0.32 | IC50 [2]: 0.088 µM; IC50 (L1210 (lymphoma) cells; read-out: IC50 (μM) L1210, 72 h exposure, MTT, mean of three independent experiments, listed as 4h): ~0.3 µM; solubility at 6 h [3]: 70 ± 10 µM (≈ 31.9 µg/mL)
CN1C/C(=C\c2ccccc2)C(=O)/C(=C/c2ccccc2)C1 [IB-1] | 5 ± 2 | 2.4 ± 0.3 | 
Cc1ccc(/C=C2\CNC/C(=C\c3ccc(C)cc3)C2=O)cc1 [IB-2] |  |  | IC50 (B16 (melanoma) cells; [6]): 41 ± 6 µM; IC50 (L1210 (lymphoma) cells; [7]): 35 ± 5 µM
CN1C/C(=C\c2ccc([N+](=O)[O-])cc2)C(=O)/C(=C/c2ccc([N+](=O)[O-])cc2)C1 [IB-3] |  | 1.3 | IC50 (B16 (melanoma) cells; [6]): 41 ± 2 µM; IC50 (B16 (melanoma) cells; read-out: IC50 (μM) B16, 72 h exposure, MTT, mean of three independent experiments, listed as 5c): 4 µM
COc1ccc(/C=C2\CN(C)C/C(=C\c3ccc(OC)cc3)C2=O)cc1 [IB-4] | 23 | 62 | 
COc1ccc(/C=C2\CN(C)C/C(=C\c3ccc(OC)c(O)c3)C2=O)cc1O [IB-5] | 1.3 to 2.1 | 0.8 to 1.9 | IC50 (B16 (melanoma) cells; [6]): 2.1 ± 0.1 µM; IC50 (L1210 (lymphoma) cells; [7]): 0.8 ± 0.4 µM
COc1cc(/C=C2\CN(C)C/C(=C\c3ccc(O)c(OC)c3)C2=O)ccc1O [IB-6] | 1.3 to 2.1 |  | IC50 (B16 (melanoma) cells; [6]): 1.8 ± 0.3 µM; IC50 (L1210 (lymphoma) cells; [7]): 1.9 ± 0.4 µM
COc1ccc(/C=C2\CN(C)C/C(=C\c3ccc(OC)c(OC)c3)C2=O)cc1OC [IB-7] | 1.3 to 2.1 | 0.8 to 1.9 | IC50 (B16 (melanoma) cells; [6]): 1.3 ± 0.1 µM; IC50 (L1210 (lymphoma) cells; [7]): 1 ± 0.6 µM
COc1cc(/C=C2\CN(C)C/C(=C\c3cc(OC)c(OC)c(OC)c3)C2=O)cc(OC)c1OC [IB-8] | 0.31 | 0.37 | IC50 (B16 (melanoma) cells; read-out: IC50 (μM) B16, 72 h exposure, MTT, mean of three independent experiments, listed as 5 h): ~0.3 µM; IC50 [2]: 0.19 µM; IC50 (L1210 (lymphoma) cells; read-out: IC50 (μM) L1210, 72 h exposure, MTT, mean of three independent experiments, listed as 5 h): ~0.3 µM; solubility at 6 h [3]: 160 ± 30 µM (≈ 75.1 µg/mL)
Cc1ccc(/C=C2\CN(C(C)C)C/C(=C\c3ccc(C)cc3)C2=O)cc1 [IC-2] | 4 ± 2 | 2.5 ± 0.7 | 
CC(C)N1C/C(=C\c2ccc([N+](=O)[O-])cc2)C(=O)/C(=C/c2ccc([N+](=O)[O-])cc2)C1 [IC-3] | 3.7 ± 0.6 | 0.9 ± 0.6 | 

Compound | IC50 (B16 (melanoma) cells; [4]) [µM] | IC50 (L1210 (lymphoma) cells; [5]) [µM] | other results
COc1ccc(/C=C2\CN(C(C)C)C/C(=C\c3ccc(OC)c(O)c3)C2=O)cc1O [IC-5, 3,5-Di(3-hydroxy-4-methoxylbenzyliden)-1-isopropylpiperidin-4-one] | 1.1 | 0.4 | melting point: 165 to 168 °C
COc1cc(/C=C2\CN(C(C)C)C/C(=C\c3ccc(O)c(OC)c3)C2=O)ccc1O [IC-6] | 2.2 ± 0.2 | 2.2 ± 0.2 | 
COc1cc(/C=C2\CN(C(C)C)C/C(=C\c3cc(OC)c(OC)c(OC)c3)C2=O)cc(OC)c1OC [IC-8] | 25 to 65 | 25 to 65 | IC50 (B16 (melanoma) cells; read-out: IC50 (μM) B16, 72 h exposure, MTT, mean of three independent experiments, listed as 6h): 25.6 µM; IC50 (L1210 (lymphoma) cells; read-out: IC50 (μM) L1210, 72 h exposure, MTT, mean of three independent experiments, listed as 6h): 47 µM and 47.1 µM
O=C1/C(=C/c2ccccc2)CN(Cc2ccccc2)C/C1=C\c1ccccc1 [ID-1] | 3.1 ± 0.1 | 3.4 ± 0.5 | 
Cc1ccc(/C=C2\CN(Cc3ccccc3)C/C(=C\c3ccc(C)cc3)C2=O)cc1 [ID-2] | 14 | 9 | 
O=C1/C(=C/c2ccc([N+](=O)[O-])cc2)CN(Cc2ccccc2)C/C1=C\c1ccc([N+](=O)[O-])cc1 [ID-3] | 2.5 ± 0.7 | 2 ± 1 | 
COc1ccc(/C=C2\CN(Cc3ccccc3)C/C(=C\c3ccc(OC)cc3)C2=O)cc1 [ID-4] | 27 | 8 | 
COc1ccc(/C=C2\CN(Cc3ccccc3)C/C(=C\c3ccc(OC)c(O)c3)C2=O)cc1O [ID-5] | 2.4 ± 0.5 | 3.1 ± 0.1 | 
COc1cc(/C=C2\CN(Cc3ccccc3)C/C(=C\c3ccc(O)c(OC)c3)C2=O)ccc1O [ID-6] | 2 ± 0.5 | 2.8 ± 0.4 | 
COc1ccc(/C=C2\CN(Cc3ccccc3)C/C(=C\c3ccc(OC)c(OC)c3)C2=O)cc1OC [ID-7] | 2 ± 0.4 | 3.3 ± 0.1 | IC50 (B16 (melanoma) cells; read-out: IC50 (μM) B16, 72 h exposure, MTT, mean of three independent experiments, listed as 7g): 2.5 ± 0.4 µM
COc1cc(/C=C2\CN(Cc3ccccc3)C/C(=C\c3cc(OC)c(OC)c(OC)c3)C2=O)cc(OC)c1OC [ID-8] | 2.4 | 3.6 | IC50 [2]: 0.76 µM; solubility at 6 h [3]: 210 ± 20 µM (≈ 115 µg/mL)
O=C1/C(=C/c2ccccc2)CN(c2ccccc2)C/C1=C\c1ccccc1 [IE-1] | 7 | 4 ± 2 | 
Cc1ccc(/C=C2\CN(c3ccccc3)C/C(=C\c3ccc(C)cc3)C2=O)cc1 [IE-2, 3,5-Di(4-methylbenzylidene)-1-phenylpiperidin-4-one] | > 100 | > 100 | melting point: 173 to 176 °C
O=C1/C(=C/c2ccc([N+](=O)[O-])cc2)CN(c2ccccc2)C/C1=C\c1ccc([N+](=O)[O-])cc1 [IE-3, 3,5-Di(4-nitrobenzylidene)-1-phenylpiperidin-4-one] |  |  | IC50 (B16 (melanoma) cells; [6]): 65 ± 7 µM; melting point: 184 to 188 °C; IC50 (L1210 (lymphoma) cells; [7]): 65 ± 7 µM
COc1ccc(/C=C2\CN(c3ccccc3)C/C(=C\c3ccc(OC)cc3)C2=O)cc1 [IE-4, 3,5-Di(4-methoxybenzylidene)-1-phenylpiperidin-4-one] | 25 to 65 |  | IC50 (B16 (melanoma) cells; [6]): 37 ± 6 µM; melting point: 152 to 155 °C; IC50 (L1210 (lymphoma) cells; [7]): 55 ± 7 µM
COc1ccc(/C=C2\CN(c3ccccc3)C/C(=C\c3ccc(OC)c(O)c3)C2=O)cc1O [IE-5, 3,5-Di(3-hydroxy-4-methoxybenzylidene)-1-phenylpiperidin-4-one] | 19 | 6 | melting point: 142 to 146 °C
COc1cc(/C=C2\CN(c3ccccc3)C/C(=C\c3ccc(O)c(OC)c3)C2=O)ccc1O [IE-6, 3,5-Di(4-hydroxy-3-methoxybenzylidene)-1-phenylpiperidin-4-one] | 2.9 ± 0.4 | 2.8 ± 0.4 | melting point: 139 to 143 °C
COc1ccc(/C=C2\CN(c3ccccc3)C/C(=C\c3ccc(OC)c(OC)c3)C2=O)cc1OC [IE-7, 3,5-Di(3,4-dimethoxybenzylidene)-1-phenylpiperidin-4-one] | 1.3 ± 0.1 | 2.9 ± 0.9 | melting point: 144 to 148 °C
